Here are results for four molecules from ChEMBL document CHEMBL1201862, “PubChem BioAssay data set” (2004).

Active and inactive are the calls of the source. Bounds are passed on as bounds.

Assay [1] concerns the target G-protein coupled receptor 35 (Homo sapiens, UniProt Q9HC97). The experiment in a line: inhibition of zaprinast-stimulated GPR35 beta-arrestin translocation – imaging, U2OS, beta-arrestin-GFP, zaprinast agonist, primary screen (AID 2058).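 Note: antagonist potency meaning inhibition of agonist-induced arrestin redistribution.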 The format is functional.
In another assay the test system is Vero. The experiment in a line: viability of Vero cells under compound – cytotoxicity control for flavivirus capping enzyme inhibitors (AID 588742). The format is functional. As to conditions: Chlorocebus sabaeus.
The test system of a further assay is CHO. As to the kind of experiment: CHO cell viability loss, potency – luminescence, cytotoxicity control for TLR9-MyD88 binding inhibitor project, dose response (AID 588339).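 Note: CHO cells stably coexpressing TLR9 and MyD88 fusions from primary screen; compound exposure lasted 48 hours before viability readout.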 It is filed as functional, cell-based, hamster. Conditions: Cricetulus griseus.
In the next assay the target is Paired box protein Pax-8 (Homo sapiens, UniProt Q06710). The experiment in a line: PAX8 transcriptional activity inhibition in RMG-I – RMG-I cells, luciferase, cherry-pick, dose response (AID 687027).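 Note: luciferase reporter driven by Pax8 target thyroperoxidase promoter measured by SteadyGlo luminescence.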 The format is functional, cell-based.
For a further assay, the target named is Beta Lactamase (Pseudomonas aeruginosa, UniProt Q932Y6). As to the kind of experiment: BLA reporter interference, concentration series – BLA reporter cells, FRET fluorescence, artefact control for TLR9-MyD88 binding inhibitor project, dose response (AID 588341).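 Note: cell based assay in CHO-K1 cells stably expressing beta-lactamase.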 It is filed as cell-based.
Another assay has as its target T1, Streptokinase A (Streptococcus pyogenes serotype M1, UniProt P10520).
T1 sequence (P10520 whole entry): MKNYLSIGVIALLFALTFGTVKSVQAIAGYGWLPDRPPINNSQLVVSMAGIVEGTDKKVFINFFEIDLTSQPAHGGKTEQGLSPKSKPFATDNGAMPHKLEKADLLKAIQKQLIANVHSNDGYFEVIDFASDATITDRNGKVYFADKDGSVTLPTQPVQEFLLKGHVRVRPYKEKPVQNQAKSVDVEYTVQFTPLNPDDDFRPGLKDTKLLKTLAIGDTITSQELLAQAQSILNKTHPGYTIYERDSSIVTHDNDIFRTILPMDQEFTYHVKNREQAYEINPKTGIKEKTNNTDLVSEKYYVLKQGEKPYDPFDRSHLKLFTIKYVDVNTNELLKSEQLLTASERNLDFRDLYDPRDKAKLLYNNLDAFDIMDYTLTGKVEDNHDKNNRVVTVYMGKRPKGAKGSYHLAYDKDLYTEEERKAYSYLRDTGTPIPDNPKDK
As to the kind of experiment: viability-normalized secreted streptokinase activity reduction – plasminogen activation absorbance, OD405, dose response (AID 1914).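 Note: secreted streptokinase activity via plasminogen activation per viability signal from cell pellet.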 It is filed as functional, Streptococcus pyogenes M1 GAS.

Assay [2] deals with Intestinal-type alkaline phosphatase (Homo sapiens, UniProt P09923). As to the kind of experiment: activation of human intestinal alkaline phosphatase – biochemical, dose response (AID 488873). The format is functional.
For assay [3], the target named is 3-phosphoinositide-dependent protein kinase 1 (Homo sapiens, UniProt O15530). The format is functional.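 Note: value comes from the Navigating the Kinome panel, PDPK1 member.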
Assay [4] deals with Ribosomal protein S6 kinase beta-1 (Homo sapiens, UniProt P23443). It is filed as functional.
Assay [5] deals with Dual specificity tyrosine-phosphorylation-regulated kinase 4 (Homo sapiens, UniProt Q9NR20). It is filed as functional.
Assay [6] addresses MAP kinase-activated protein kinase 5 (Homo sapiens, UniProt Q8IW41). It is filed as functional.
Assay [7] deals with Tyrosine-protein kinase receptor UFO (Homo sapiens, UniProt P30530). The format is functional.
Assay [8] deals with High affinity nerve growth factor receptor (Homo sapiens, UniProt P04629). The format is functional.
Assay [9] deals with Serine/threonine-protein kinase pim-3 (Homo sapiens, UniProt Q86V86). The format is functional.
Assay [10] concerns the target Serine/threonine-protein kinase Nek4 (Homo sapiens, UniProt P51957). The format is functional.
For assay [11], the target named is Serine/threonine-protein kinase PAK 1 (Homo sapiens, UniProt Q13153). The format is functional.
Assay [12] has as its target Tyrosine-protein kinase Fyn (Homo sapiens, UniProt P06241). The format is functional.
The target in assay [13] is Tyrosine-protein kinase JAK3 (Homo sapiens, UniProt P52333). It is filed as functional.
Assay [14] addresses RAC-gamma serine/threonine-protein kinase (Homo sapiens, UniProt Q9Y243). It is filed as functional.
The target of assay [15] is Tyrosine-protein kinase Lyn (Homo sapiens, UniProt P07948). The format is functional.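 Note: lyn as one member of a kinase panel.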
Assay [16] addresses Casein kinase I isoform gamma-1 (Homo sapiens, UniProt Q9HCP0). It is filed as functional.
For assay [17], the target named is Protein kinase C zeta type (Homo sapiens, UniProt Q05513). The format is functional.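 Note: measured as one member of a broad kinase profiling panel.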
Assay [18] has as its target Phosphorylase b kinase gamma catalytic chain, liver/testis isoform (Homo sapiens, UniProt P15735). The format is functional.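 Note: PHKG2 measured as one member of a kinome-wide kinase panel.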
Assay [19] has as its target Serine/threonine-protein kinase MRCK alpha (Homo sapiens, UniProt Q5VT25). It is filed as functional.
Assay [20] addresses Mitogen-activated protein kinase kinase kinase kinase 2 (Homo sapiens, UniProt Q12851). It is filed as functional.
Assay [21] deals with Serine/threonine-protein kinase PLK4 (Homo sapiens, UniProt O00444). It is filed as functional.
In assay [22] the target is Mitogen-activated protein kinase 12 (Homo sapiens, UniProt P53778). It is filed as functional.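 Note: measured as one member of a kinome-wide kinase profiling panel.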
In assay [23] the target is Tyrosine-protein kinase ABL1 (Homo sapiens, UniProt P00519). It is filed as functional.
For assay [24], the target named is Tyrosine-protein kinase Fer (Homo sapiens, UniProt P16591). It is filed as functional.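 Note: FER tested as one member of a kinome panel.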
Assay [25] addresses cAMP-dependent protein kinase catalytic subunit alpha (Homo sapiens, UniProt P17612). It is filed as functional.
Assay [26] deals with Vascular endothelial growth factor receptor 1 (Homo sapiens, UniProt P17948). It is filed as functional.
Assay [27] deals with Tyrosine-protein kinase Blk (Homo sapiens, UniProt P51451). The format is functional.
In assay [28] the target is Megakaryocyte-associated tyrosine-protein kinase (Homo sapiens, UniProt P42679). It is filed as functional.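 Note: affinity measured as one member of a kinase panel (Navigating the Kinome) against MATK.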
Assay [29] has as its target Serine/threonine-protein kinase PAK 4 (Homo sapiens, UniProt O96013). The format is functional.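 Note: value obtained within a kinome profiling panel in which PAK4 was one of the panel members.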
The target of assay [30] is Dual specificity tyrosine-phosphorylation-regulated kinase 1A (Homo sapiens, UniProt Q13627). It is filed as functional.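 Note: measured against DYRK1A as one member of a broad kinome profiling panel.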
In assay [31] the target is Tyrosine-protein kinase FRK (Homo sapiens, UniProt P42685). It is filed as functional.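 Note: FRK tested as one member of a kinome panel.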
A further assay has as its target SRSF protein kinase 1 (Homo sapiens, UniProt Q96SB4). It is filed as functional.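 Note: measured as one member of a kinome-wide kinase profiling panel.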
Another assay concerns the target Beta-galactosidase (Escherichia coli, UniProt Q8VNN2). As to the kind of experiment: detection-enzyme interference by beta-gal modulators – biochemical, E. coli enzyme, set 3, artefact control for CCR6 antagonist project, dose response (AID 504712). It is filed as functional.
Assay [32] is described as follows: viability of HCT116 lacking mutant beta-catenin – cell-based, human colon tumor, dose response (AID 1045).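 Note: HCT116 colon tumor cells with beta catenin knocked out; cells exposed to compound for 60 hours.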 It is filed as functional.

Chain of Megakaryocyte-associated tyrosine-protein kinase (P42679 whole entry): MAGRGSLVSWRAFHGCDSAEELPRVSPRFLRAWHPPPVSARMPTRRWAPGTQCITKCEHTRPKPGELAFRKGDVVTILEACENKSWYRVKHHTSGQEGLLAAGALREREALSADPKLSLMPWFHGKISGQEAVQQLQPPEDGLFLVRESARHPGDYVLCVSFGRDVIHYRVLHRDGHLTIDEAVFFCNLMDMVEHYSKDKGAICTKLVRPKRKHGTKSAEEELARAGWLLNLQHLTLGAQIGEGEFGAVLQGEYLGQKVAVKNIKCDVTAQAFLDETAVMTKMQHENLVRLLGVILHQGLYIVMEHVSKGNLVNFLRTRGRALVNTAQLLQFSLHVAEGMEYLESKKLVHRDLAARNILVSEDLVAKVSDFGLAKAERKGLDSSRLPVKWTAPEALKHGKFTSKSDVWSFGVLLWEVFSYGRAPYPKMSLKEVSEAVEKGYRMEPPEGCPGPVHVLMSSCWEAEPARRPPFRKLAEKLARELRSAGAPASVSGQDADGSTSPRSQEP
Chain of Serine/threonine-protein kinase MRCK alpha (Q5VT25 whole entry): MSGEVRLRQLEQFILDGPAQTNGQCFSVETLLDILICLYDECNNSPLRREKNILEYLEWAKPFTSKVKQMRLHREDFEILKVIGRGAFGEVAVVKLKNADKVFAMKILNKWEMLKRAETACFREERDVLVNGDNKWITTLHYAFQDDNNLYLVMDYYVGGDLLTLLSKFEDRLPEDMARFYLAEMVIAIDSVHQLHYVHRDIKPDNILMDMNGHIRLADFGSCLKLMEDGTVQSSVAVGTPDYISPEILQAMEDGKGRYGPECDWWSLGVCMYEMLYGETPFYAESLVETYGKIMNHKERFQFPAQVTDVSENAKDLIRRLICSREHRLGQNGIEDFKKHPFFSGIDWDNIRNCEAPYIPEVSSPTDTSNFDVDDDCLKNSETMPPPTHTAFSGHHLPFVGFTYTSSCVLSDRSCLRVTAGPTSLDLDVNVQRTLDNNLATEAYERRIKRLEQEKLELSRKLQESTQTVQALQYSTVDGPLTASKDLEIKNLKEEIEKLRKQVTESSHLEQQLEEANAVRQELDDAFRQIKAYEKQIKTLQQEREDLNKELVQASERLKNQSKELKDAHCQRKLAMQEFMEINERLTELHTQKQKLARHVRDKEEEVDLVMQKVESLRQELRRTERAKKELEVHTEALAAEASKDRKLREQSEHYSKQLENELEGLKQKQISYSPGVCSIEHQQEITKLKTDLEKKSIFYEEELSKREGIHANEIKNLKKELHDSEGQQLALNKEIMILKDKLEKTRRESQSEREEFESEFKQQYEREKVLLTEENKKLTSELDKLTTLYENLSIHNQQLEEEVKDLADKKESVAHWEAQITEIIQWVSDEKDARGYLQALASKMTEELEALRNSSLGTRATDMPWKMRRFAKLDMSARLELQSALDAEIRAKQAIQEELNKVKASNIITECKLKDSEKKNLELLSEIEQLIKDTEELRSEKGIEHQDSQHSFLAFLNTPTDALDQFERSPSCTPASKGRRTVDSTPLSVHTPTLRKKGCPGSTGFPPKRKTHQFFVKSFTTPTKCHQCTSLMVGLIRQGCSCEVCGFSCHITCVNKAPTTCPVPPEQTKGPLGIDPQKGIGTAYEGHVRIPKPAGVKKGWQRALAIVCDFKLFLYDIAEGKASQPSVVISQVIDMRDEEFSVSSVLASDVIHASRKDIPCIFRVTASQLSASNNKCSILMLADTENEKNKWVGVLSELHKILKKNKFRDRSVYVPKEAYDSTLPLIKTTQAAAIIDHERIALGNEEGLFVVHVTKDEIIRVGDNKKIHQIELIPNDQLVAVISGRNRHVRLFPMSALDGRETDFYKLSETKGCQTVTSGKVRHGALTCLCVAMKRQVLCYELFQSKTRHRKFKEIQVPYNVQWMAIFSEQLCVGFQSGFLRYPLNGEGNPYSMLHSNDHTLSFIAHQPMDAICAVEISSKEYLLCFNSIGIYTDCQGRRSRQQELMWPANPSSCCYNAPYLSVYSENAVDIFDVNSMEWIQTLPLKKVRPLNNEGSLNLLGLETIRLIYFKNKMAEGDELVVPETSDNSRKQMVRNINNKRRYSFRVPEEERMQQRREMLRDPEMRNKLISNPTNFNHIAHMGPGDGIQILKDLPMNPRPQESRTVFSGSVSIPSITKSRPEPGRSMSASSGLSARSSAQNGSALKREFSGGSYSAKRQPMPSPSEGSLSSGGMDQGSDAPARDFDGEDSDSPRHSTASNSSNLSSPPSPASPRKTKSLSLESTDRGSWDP
Chain of G-protein coupled receptor 35 (Q9HC97 whole entry): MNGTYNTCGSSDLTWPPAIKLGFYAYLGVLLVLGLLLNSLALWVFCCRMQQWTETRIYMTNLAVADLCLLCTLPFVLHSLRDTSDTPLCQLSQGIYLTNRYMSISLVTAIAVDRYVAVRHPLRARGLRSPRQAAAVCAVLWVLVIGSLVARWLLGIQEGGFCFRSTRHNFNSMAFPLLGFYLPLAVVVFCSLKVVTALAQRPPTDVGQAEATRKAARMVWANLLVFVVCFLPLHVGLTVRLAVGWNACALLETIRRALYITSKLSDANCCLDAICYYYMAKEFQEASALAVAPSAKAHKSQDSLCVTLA
Chain of Tyrosine-protein kinase Lyn (P07948 whole entry, canonical isoform): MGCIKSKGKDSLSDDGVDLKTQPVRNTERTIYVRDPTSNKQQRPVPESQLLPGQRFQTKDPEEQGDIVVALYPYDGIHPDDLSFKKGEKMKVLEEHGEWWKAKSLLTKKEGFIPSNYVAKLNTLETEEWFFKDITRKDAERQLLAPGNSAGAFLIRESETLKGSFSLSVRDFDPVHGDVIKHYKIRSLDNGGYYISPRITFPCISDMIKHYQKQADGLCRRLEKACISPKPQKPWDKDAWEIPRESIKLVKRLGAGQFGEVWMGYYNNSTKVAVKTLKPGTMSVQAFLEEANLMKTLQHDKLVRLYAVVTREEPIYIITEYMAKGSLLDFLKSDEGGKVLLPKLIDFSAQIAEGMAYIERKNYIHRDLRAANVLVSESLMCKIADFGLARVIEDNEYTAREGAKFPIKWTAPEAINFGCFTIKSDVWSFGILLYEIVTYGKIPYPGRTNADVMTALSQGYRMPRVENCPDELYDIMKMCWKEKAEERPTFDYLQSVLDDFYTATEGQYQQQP
Chain of Vascular endothelial growth factor receptor 1 (P17948 whole entry): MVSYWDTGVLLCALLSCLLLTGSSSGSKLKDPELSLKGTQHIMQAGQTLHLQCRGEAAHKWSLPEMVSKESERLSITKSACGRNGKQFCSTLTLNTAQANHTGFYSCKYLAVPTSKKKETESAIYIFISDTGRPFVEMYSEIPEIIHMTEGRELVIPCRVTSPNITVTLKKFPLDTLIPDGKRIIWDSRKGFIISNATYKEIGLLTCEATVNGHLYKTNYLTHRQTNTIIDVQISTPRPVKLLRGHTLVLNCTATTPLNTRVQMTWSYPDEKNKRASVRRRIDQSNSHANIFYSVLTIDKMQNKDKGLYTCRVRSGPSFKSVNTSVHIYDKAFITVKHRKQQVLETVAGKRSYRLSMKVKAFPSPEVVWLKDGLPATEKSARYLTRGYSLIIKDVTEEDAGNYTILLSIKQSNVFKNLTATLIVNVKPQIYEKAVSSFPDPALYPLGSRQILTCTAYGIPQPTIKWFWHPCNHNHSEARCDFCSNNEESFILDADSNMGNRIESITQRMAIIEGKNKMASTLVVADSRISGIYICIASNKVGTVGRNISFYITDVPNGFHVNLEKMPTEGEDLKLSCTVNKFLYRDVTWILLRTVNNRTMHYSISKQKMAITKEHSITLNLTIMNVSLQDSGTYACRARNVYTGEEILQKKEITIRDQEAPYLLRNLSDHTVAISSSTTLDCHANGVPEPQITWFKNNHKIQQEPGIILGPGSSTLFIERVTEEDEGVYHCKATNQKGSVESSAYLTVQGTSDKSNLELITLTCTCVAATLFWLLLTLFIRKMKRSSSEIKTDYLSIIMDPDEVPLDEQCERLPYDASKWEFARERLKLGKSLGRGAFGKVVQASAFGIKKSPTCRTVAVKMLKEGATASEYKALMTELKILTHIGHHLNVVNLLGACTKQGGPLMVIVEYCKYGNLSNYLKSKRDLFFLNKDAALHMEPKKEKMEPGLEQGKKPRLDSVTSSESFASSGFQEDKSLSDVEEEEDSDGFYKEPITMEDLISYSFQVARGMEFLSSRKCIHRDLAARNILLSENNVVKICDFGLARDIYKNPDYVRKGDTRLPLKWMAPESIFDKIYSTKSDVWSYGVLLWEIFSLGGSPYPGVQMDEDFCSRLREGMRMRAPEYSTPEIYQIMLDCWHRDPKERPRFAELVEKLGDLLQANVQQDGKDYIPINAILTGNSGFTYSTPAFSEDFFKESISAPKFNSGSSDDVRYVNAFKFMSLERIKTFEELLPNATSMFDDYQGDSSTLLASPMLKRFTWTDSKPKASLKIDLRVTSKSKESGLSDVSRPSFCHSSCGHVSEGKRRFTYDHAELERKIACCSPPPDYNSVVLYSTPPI
Chain of Beta Lactamase (Q932Y6 whole entry): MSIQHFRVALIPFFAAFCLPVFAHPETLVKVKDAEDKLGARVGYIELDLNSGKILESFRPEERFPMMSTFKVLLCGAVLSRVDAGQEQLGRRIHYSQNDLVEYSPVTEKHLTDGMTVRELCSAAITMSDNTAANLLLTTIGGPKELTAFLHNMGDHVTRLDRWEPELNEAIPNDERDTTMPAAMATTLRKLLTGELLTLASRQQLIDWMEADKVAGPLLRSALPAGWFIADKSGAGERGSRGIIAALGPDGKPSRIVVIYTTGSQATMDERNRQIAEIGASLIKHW

`CC(=O)N(C1=C(Cl)C(=O)c2ccccc2C1=O)C1CCCCC1`: the IC50 in assay [1] was 5550 nM (active); in the assay with CHO it was 802 nM (active); on Beta Lactamase it was 5300 nM (active). Besides, the CC50 in the assay on Vero is 22400 nM (active). The AC50 at Paired box protein Pax-8 is 2740 nM (active). For the same molecule, on Streptokinase A, the EC50 was > 150000 nM (not active).

As for `Oc1ccc(-c2cn3c(n2)SCC3)cc1O`, the EC50 in assay [2] is 22100 nM (active).

In the case of `O=C1Nc2ccc3ncsc3c2C1=CNc1ccc(S(=O)(=O)Nc2ccccn2)cc1`, the Ki is 15.8 nM (active) in [3]; 126 nM (active) in [4]; 3160 nM (active) in [5]; 398 nM (active) in [6]; 20 nM (active) in assay [7]; 20 nM (active) in assay [8]. Besides, the Ki in [9] is 1260 nM (active); in assay [10], 501 nM (active); in assay [11] it was 2000 nM (active); in assay [12], 200 nM (active); in assay [13], 25.1 nM (active); in assay [14], > 10000 nM (inactive). Also, the Ki was 398 nM (active) in assay [15]; 2510 nM (active) in assay [16]; > 7940 nM (inactive) in assay [17]; 158 nM (active) in assay [18]; > 10000 nM (inactive) in assay [19]; 7.94 nM (active) in assay [20]. Further, the Ki in assay [21] is 12.6 nM (active); in assay [22], 3160 nM (active); in assay [23], > 631 nM (inactive); in [24], 1260 nM (active); in [25], 3980 nM (active); in assay [26] it was 10 nM (active). Further, the Ki was 158 nM (active) in assay [27]; 200 nM (active) in assay [28]; 200 nM (active) in assay [29]; 7.94 nM (active) in assay [30]; 31.6 nM (active) in [31]; 1000 nM (active) on SRSF protein kinase 1.

Consider `Cc1ccc(NC2=C/C(=N\S(=O)(=O)c3cccs3)c3ccccc3C2=O)c(C)c1`, for which the IC50 on Beta-galactosidase is > 66600 nM (inactive). In addition, the EC50 in assay [32] is 1080 nM (active).

For orientation: IC50 means the concentration that inhibits the measured activity by half. As a reminder, the CC50 is the concentration giving 50% cytotoxicity. In general, AC50 refers to the concentration giving half of the maximal activity seen. One may read the EC50 as the concentration needed to bring the measured effect to its halfway point. For orientation: Ki means the dissociation constant of the complex between target and ligand, obtained from inhibition or displacement.
